Data as given in PMC11083148, “Structure–Activity Relationship Studies on Highly Functionalized Pyrazole Hydrazones and Amides as Antiproliferative and Antioxidant Agents” (International Journal of Molecular Sciences, 2024).

Key:
[1] = test system: NCI-H460; test: NCI screening, Non-Small Cell Lung Cancer; assay type: cell-based; conditions: 10 µM
Protocol: (§1) In addition, 11a and 17 (representative compounds of the acylhydrazone and amide series) were selected by the National Cancer Institute (NCI, Germantown, MD, USA) and tested at a fixed concentration of 10 µM against a panel of fifty-nine different cancer cell lines, including highly metastatic tumors (Table 2).

[2] = test system: NCI-H522; test: NCI screening, Non-Small Cell Lung Cancer; assay type: cell-based; conditions: 10 µM
Protocol: as §1

CCOC(=O)c1c(NC(=O)C2CC2)nn(C)c1Nc1ccccc1 [compound 17, Ethyl 3-(cyclopropanecarboxamido)-1-methyl-5-(phenylamino)-1H-pyrazole-4-carboxylate]
Growth Percentage (%) [1]: 101.02%
Growth Percentage (%) [2]: 97.23%
